Values joined by “and” are separate entries in the source; they are usually repeats but may differ in a detail not shown here. Equal values may be shown once. Toxic doses and inconclusive results are not listed.
Tested on: CD2F1 mice, L1210 leukemia ip, survival T/C
Experiment: NCI In Vivo Anticancer Drug Screen. Data for tumor model L1210 Leukemia (intraperitoneal) in CD2F1 (CDF1) mice
Details: endpoint: mean survival time, higher = longer survival
Procedure, shortened: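 Mice carrying a transplanted tumor received test compound or vehicle alone. The value is the measurement in the treated group divided by that in the vehicle-treated control group.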

[1] = dose: 100.0 mg/kg/injection, schedule: Q01DX009 (ip), vehicle: saline with Tween-80
[2] = dose: 100.0 mg/kg/injection, schedule: Q04DX003 (ip), vehicle: saline with Tween-80
[3] = dose: 200.0 mg/kg/injection, schedule: Q01DX009 (ip), vehicle: saline with Tween-80
[4] = dose: 200.0 mg/kg/injection, schedule: Q04DX003 (ip), vehicle: saline with Tween-80
[5] = dose: 400.0 mg/kg/injection, schedule: Q04DX003 (ip), vehicle: saline with Tween-80

In the case of `N#C/C(=C\C=C\c1cccc([N+](=O)[O-])c1)c1ccccc1`, the T/C (dose: 100.0 mg/kg/injection, schedule: Q01DX001 (ip), vehicle: saline with Tween-80) is reported as 96 % of control, the T/C [1] is reported as 100 % of control and 103 % of control and the T/C (dose: 100.0 mg/kg/injection, schedule: Q04DX002 (ip), vehicle: saline with Tween-80) is reported as 102 % of control. The T/C [2] was 97 % of control, the T/C (dose: 200.0 mg/kg/injection, schedule: Q01DX001 (ip), vehicle: saline with Tween-80) was 105 % of control and the T/C [3] was 96 % of control and 107 % of control. The T/C (dose: 200.0 mg/kg/injection, schedule: Q04DX002 (ip), vehicle: saline with Tween-80) was 98 % of control, the T/C [4] was 105 % of control and the T/C (dose: 400.0 mg/kg/injection, schedule: Q01DX001 (ip), vehicle: saline with Tween-80) was 97 % of control. For the same compound, the T/C (dose: 400.0 mg/kg/injection, schedule: Q01DX009 (ip), vehicle: saline with Tween-80) was 94 % of control and 100 % of control, the T/C (dose: 400.0 mg/kg/injection, schedule: Q04DX002 (ip), vehicle: saline with Tween-80) was 100 % of control and the T/C [5] was 94 % of control.

For `CCc1c(CNc2ccc(C(=O)NC(CC(=O)O)C(=O)O)cc2)ccc2nc(N)nc(N)c12` (configuration not stated), the T/C (dose: 0.25 mg/kg/injection, schedule: Q01DX001 (ip), vehicle: saline) was 105 % of control, the T/C (dose: 0.5 mg/kg/injection, schedule: Q01DX001 (ip), vehicle: saline) was 114 % of control and the T/C (dose: 1.0 mg/kg/injection, schedule: Q01DX001 (ip), vehicle: saline) was 119 % of control. For the same compound, the T/C (dose: 4.0 mg/kg/injection, schedule: Q01DX001 (ip), vehicle: saline) was 163 % of control.

With `CC(C)CCNC(=O)NS(=O)(=O)c1ccc(N)cc1` the T/C [2] was 102 % of control, the T/C [4] was 102 % of control and the T/C [5] was 98 % of control.

In the case of `C[n+]1c(-c2cc(Cl)cc(Cl)c2)c2cc(N)ccc2c2ccccc21`, the T/C (dose: 6.25 mg/kg/injection, schedule: Q01DX009 (ip), vehicle: water) is reported as 108 % of control, the T/C (dose: 12.5 mg/kg/injection, schedule: Q01DX009 (ip), vehicle: water) is reported as 108 % of control and the T/C (dose: 25.0 mg/kg/injection, schedule: Q01DX009 (ip), vehicle: water) is reported as 104 % of control.

In the case of `O=S(=O)(O)O.[NH2-].[NH2-].[Pt+2]`, the T/C (dose: 0.63 mg/kg/injection, schedule: Q04DX003 (ip), vehicle: dextrose) is reported as 98 % of control, the T/C (dose: 1.25 mg/kg/injection, schedule: Q04DX003 (ip), vehicle: dextrose) is reported as 108 % of control and the T/C (dose: 5.0 mg/kg/injection, schedule: Q04DX003 (ip), vehicle: dextrose) is reported as 95 % of control.

`[O-][n+]1c(Cl)nc(Cl)c(Cl)c1C(Cl)(Cl)Cl` was tested, and the T/C (dose: 12.5 mg/kg/injection, schedule: Q04DX003 (ip), vehicle: other) was 111 % of control and the T/C (dose: 25.0 mg/kg/injection, schedule: Q04DX003 (ip), vehicle: other) was 103 % of control.

With `C=C[CH2][Sn]([CH2]C=C)([CH2]CCC)[CH2]CCC` the T/C (dose: 6.25 mg/kg/injection, schedule: Q01DX009 (ip), vehicle: saline with Tween-80) was 95 % of control, the T/C (dose: 12.5 mg/kg/injection, schedule: Q01DX009 (ip), vehicle: saline with Tween-80) was 100 % of control and the T/C (dose: 25.0 mg/kg/injection, schedule: Q01DX009 (ip), vehicle: saline with Tween-80) was 94 % of control.

`CCOC(=O)CN1CC(=O)Nc2ccccc21` was tested, and the T/C [2] was 95 % of control, the T/C [4] was 98 % of control and the T/C [5] was 111 % of control.

For `O=C(CC(SCCN1CCOCC1)c1ccc([N+](=O)[O-])cc1)c1ccccc1` (configuration not stated), the T/C (dose: 100.0 mg/kg/injection, schedule: Q01DX001 (ip), vehicle: Klucel (hydroxypropylcellulose) (HPC)) was 104 % of control, the T/C (dose: 200.0 mg/kg/injection, schedule: Q01DX001 (ip), vehicle: Klucel (hydroxypropylcellulose) (HPC)) was 96 % of control and the T/C (dose: 400.0 mg/kg/injection, schedule: Q01DX001 (ip), vehicle: Klucel (hydroxypropylcellulose) (HPC)) was 107 % of control.

`CC(CCl)C(C#N)(c1ccccc1)c1ccccc1` (configuration not stated) was tested, and the T/C (dose: 50.0 mg/kg/injection, schedule: Q01DX009 (ip), vehicle: saline with Tween-80) was 92 % of control, the T/C [1] was 95 % of control and the T/C [2] was 101 % of control. The T/C [3] was 95 % of control and the T/C [4] was 101 % of control.

In the case of `CC(=O)OCC1OC(n2nc(C#N)c(C#N)n2)C(OC(C)=O)C1OC(C)=O` (configuration not stated), the T/C (dose: 12.5 mg/kg/injection, schedule: Q01DX005 (ip), vehicle: distilled water + Tween-80) is reported as 106 % of control, the T/C (dose: 25.0 mg/kg/injection, schedule: Q01DX005 (ip), vehicle: distilled water + Tween-80) is reported as 101 % of control and 106 % of control and the T/C (dose: 50.0 mg/kg/injection, schedule: Q01DX005 (ip), vehicle: distilled water + Tween-80) is reported as 98 % of control and 112 % of control. The T/C (dose: 100.0 mg/kg/injection, schedule: Q01DX005 (ip), vehicle: distilled water + Tween-80) was 115 % of control and 104 % of control, the T/C (dose: 200.0 mg/kg/injection, schedule: Q01DX005 (ip), vehicle: distilled water + Tween-80) was 121 % of control and 104 % of control and the T/C (dose: 400.0 mg/kg/injection, schedule: Q01DX005 (ip), vehicle: distilled water + Tween-80) was 106 % of control.

— PubChem BioAssay AID256 (DTP/NCI, 2004)
